Active and inactive are the calls of the source.
Columns and labels:
Fibrinogen beta chain [1] = biological target: T1, Fibrinogen beta chain (Homo sapiens, UniProt P02675); test: Fluorescence polarization-based biochemical high throughput dose response assay to identify inhibitors that disrupt the binding of a cyclic peptide (Tn7) to the fibrin proteolytic product D-Dimer and fragment E complex [DD(E )].
Fibrinogen beta chain [2] = biological target: T1, Fibrinogen beta chain; test: Fluorescence polarization-based biochemical high throughput dose response assay to identify inhibitors that disrupt the binding of a cyclic peptide (Tn6) to the fibrin proteolytic product D-Dimer and fragment E complex [DD(E )].
Genome polyprotein = Genome polyprotein (dengue virus type 2, UniProt P29990); test: Dengue-2 NS5 methyltransferase inhibitors, primary screen, biochemical, confirmation dose response (AID 588689); assay type: functional
Sequence of Genome polyprotein (P29990 2492-3391 limits assumed): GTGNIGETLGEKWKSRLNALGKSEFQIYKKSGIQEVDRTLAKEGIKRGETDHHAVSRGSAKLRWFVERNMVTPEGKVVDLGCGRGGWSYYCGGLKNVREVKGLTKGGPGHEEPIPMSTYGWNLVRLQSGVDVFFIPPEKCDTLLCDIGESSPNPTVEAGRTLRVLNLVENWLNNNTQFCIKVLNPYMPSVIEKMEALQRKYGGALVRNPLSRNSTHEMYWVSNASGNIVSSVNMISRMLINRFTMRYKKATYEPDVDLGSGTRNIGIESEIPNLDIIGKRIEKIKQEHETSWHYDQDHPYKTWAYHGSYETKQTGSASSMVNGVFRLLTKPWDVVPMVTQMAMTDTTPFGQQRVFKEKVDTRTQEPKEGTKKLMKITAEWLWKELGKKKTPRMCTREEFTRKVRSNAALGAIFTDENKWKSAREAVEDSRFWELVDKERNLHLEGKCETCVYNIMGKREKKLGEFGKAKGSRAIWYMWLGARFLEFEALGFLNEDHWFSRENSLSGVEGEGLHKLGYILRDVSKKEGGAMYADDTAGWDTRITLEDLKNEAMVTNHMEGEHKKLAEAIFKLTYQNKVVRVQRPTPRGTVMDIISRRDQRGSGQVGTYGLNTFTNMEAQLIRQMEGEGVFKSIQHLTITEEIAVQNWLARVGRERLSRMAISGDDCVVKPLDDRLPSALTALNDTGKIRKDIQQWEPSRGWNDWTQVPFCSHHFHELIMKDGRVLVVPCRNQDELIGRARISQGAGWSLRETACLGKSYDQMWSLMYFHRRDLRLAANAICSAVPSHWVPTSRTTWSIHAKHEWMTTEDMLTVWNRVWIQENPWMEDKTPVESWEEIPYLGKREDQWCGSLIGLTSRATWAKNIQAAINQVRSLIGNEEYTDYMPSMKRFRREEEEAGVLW

[3] = biological target: Induced myeloid leukemia cell differentiation protein Mcl-1 (Homo sapiens, UniProt Q07820); assay type: functional
Sequence of Induced myeloid leukemia cell differentiation protein Mcl-1 (Q07820 whole entry): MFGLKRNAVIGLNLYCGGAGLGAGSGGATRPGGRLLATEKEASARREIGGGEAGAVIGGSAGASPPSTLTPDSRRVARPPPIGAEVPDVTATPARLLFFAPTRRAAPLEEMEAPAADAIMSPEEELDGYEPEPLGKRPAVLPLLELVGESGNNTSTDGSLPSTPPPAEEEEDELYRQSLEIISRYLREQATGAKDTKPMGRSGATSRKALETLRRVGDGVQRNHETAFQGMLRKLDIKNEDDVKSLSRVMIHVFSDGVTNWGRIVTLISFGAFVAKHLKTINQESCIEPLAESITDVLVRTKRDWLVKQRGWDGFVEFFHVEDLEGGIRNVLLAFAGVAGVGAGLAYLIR

[4] = biological target: RNA-editing ligase 1, mitochondrial (Trypanosoma brucei brucei, UniProt P86926); test: TbREL1 ligase inhibitors, dose response, biochemical, fluorescence, Trypanosoma brucei (AID 1117295); assay type: functional
Sequence of RNA-editing ligase 1, mitochondrial (P86926 whole entry): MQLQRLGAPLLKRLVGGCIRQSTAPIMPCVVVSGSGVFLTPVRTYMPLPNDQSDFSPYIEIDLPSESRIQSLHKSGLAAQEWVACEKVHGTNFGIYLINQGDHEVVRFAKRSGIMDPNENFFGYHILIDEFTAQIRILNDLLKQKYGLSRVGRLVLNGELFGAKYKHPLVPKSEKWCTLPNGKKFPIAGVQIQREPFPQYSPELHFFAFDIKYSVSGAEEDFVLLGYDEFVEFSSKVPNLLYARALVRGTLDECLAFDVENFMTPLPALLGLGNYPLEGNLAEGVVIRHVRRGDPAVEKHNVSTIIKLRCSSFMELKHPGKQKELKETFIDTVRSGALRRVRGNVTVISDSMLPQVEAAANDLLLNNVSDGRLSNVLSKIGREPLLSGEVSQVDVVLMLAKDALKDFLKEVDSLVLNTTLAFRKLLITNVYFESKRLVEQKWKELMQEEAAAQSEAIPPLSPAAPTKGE

[5] = biological target: Glutathione-S-transferase (Schistosoma japonicum, UniProt Q26513); test: biotin-GST/anti-GST TR-FRET signal inhibitors, dose response, artefact control for Vif-APOBEC3G degradation inhibitor project, biochemical (AID 1117362); assay type: functional
Sequence of Glutathione-S-transferase (Q26513 whole entry): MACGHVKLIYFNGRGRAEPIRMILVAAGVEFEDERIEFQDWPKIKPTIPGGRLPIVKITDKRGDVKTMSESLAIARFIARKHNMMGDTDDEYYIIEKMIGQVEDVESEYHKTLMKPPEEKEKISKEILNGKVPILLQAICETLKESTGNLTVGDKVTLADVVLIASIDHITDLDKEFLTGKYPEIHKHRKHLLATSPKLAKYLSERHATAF

Caspase-6 = biological target: T2, Caspase-6 (Homo sapiens, UniProt P55212); test: human caspase-6 inhibitors, dose response, biochemical, VEID-R110 fluorescence, cherry-pick (AID 720632)
T2 sequence (P55212 whole entry): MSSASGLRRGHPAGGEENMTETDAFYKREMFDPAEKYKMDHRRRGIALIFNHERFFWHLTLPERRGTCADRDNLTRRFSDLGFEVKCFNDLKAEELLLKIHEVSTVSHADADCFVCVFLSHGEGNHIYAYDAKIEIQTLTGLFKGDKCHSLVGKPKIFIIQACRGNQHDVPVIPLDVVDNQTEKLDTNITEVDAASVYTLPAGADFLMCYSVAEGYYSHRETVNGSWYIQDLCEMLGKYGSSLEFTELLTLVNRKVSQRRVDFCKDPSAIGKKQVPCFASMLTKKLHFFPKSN

[6] = biological target: Tyrosyl-DNA phosphodiesterase 2 (Homo sapiens, UniProt O95551); test: human TDP2 enzyme inhibitors, dose response, biochemical, epi absorbance, IC50 (AID 743297)
Sequence of Tyrosyl-DNA phosphodiesterase 2 (O95551 whole entry): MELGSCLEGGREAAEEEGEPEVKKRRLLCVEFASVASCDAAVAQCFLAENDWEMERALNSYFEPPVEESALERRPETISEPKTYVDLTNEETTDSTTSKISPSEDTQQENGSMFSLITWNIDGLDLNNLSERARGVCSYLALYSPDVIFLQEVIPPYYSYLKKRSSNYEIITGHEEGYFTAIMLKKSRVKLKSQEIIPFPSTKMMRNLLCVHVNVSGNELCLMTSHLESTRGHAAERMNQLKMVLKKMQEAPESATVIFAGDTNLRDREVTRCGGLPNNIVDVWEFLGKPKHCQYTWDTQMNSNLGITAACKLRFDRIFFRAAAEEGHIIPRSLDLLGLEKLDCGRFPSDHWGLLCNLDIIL

[7] = Dose-response inhibition of insulin secretion in a rat insulinoma line at 5 mM glucose (AID 1117331); assay type: functional, cell-based; settings: INS-1E
[8] = P. falciparum Dd2 growth inhibitors, dose response, SYBR Green, dry powder samples, set 4 (AID 1159572); assay type: functional, cell-based
[9] = biological target: Protein-tyrosine kinase 2-beta (Homo sapiens, UniProt Q14289);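 also: potency of inhibitors of PYK2 kinase phosphorylation of poly-GT substrate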
Sequence of Protein-tyrosine kinase 2-beta (Q14289 whole entry, the tested form may be a part): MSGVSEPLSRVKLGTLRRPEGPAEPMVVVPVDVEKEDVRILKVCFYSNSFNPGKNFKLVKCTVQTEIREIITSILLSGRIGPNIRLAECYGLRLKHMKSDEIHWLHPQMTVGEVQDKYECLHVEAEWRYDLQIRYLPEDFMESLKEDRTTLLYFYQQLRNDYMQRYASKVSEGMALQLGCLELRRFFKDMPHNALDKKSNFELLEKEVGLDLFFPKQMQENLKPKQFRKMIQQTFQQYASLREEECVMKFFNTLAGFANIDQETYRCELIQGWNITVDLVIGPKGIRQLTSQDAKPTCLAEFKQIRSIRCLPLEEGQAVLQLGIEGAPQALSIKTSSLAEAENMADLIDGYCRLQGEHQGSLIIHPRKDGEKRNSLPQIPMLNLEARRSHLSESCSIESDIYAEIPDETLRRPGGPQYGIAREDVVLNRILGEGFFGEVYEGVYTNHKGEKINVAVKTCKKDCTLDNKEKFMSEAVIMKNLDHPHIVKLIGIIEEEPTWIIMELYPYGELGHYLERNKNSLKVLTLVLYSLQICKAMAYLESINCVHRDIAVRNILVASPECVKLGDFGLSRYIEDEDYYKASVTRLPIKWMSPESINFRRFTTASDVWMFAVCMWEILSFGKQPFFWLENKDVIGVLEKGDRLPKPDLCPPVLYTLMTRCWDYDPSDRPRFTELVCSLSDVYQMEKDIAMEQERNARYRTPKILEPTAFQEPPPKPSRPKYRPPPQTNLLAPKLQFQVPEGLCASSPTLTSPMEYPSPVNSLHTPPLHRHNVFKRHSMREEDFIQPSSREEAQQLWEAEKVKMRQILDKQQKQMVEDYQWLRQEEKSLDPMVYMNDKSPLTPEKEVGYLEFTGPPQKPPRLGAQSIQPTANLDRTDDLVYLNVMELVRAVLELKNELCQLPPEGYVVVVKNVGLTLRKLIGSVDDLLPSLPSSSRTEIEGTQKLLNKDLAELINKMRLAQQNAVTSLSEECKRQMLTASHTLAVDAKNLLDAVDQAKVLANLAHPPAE

Estrogen receptor = biological target: T3, Estrogen receptor (Homo sapiens, UniProt P03372); test: potentiators of ERα–SRC-1 coactivator binding, dose response, biochemical, TR-FRET, ERα LBD (AID 737)
T3 sequence (P03372 whole entry): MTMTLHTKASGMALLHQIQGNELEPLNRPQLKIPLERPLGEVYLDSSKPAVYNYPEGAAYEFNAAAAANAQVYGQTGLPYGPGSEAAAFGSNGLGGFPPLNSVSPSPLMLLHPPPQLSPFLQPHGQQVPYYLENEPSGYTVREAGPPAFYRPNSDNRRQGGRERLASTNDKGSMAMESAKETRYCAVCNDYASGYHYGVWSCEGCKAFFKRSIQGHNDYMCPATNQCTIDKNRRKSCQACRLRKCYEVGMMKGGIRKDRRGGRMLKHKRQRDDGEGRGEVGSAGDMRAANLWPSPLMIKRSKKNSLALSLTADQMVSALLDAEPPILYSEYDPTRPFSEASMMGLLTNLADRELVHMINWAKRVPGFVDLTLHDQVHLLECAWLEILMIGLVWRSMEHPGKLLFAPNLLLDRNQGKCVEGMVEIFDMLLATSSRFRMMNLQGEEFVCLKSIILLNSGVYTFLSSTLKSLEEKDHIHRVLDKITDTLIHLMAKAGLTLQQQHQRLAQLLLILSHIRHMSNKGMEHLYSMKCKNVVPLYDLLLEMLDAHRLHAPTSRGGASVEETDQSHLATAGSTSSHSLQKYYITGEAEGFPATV

[10] = Luminescence-based cell-based high throughput dose response assay to identify activators of the DAF-12 from the parasite S. stercoralis (ssDAF-12).; assay type: functional
HT-1080 = test: cytotoxicity in HT1080 fibrosarcoma cells, cell-based, fluorescence readout (AID 620); assay type: functional; settings: Homo sapiens
[11] = biological target: T4, Oxysterols receptor LXR-beta (Homo sapiens, UniProt P55055); assay type: functional, cell-based;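 also: Cell-based luminescence dose-response assay of agonist activity at LXR, run as a confirmatory counterscreen to a daf-12 agonist screen; agonist potency from rising luciferase signal of a Gal4-LXR reporter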
T4 sequence (P55055 whole entry): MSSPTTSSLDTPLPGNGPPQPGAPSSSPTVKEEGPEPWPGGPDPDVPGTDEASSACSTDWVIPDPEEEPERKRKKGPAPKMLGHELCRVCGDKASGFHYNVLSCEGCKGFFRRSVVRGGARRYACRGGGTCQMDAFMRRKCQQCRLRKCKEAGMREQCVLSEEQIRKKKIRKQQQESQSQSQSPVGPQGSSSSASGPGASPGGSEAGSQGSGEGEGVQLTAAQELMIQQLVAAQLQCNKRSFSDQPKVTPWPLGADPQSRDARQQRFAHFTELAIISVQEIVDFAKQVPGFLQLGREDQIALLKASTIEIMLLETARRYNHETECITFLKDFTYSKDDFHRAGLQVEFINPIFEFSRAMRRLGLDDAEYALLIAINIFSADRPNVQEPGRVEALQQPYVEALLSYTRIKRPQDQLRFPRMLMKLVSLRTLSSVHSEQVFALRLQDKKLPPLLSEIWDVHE

[12] = biological target: Luciferin 4-monooxygenase (Photinus pyralis, UniProt P08659); test: Counter Screen for Luciferase-based Assay Positives. [Related pubchem assays: 620, 618, 411 ]
Sequence of Luciferin 4-monooxygenase (P08659 whole entry, the tested form may be a part): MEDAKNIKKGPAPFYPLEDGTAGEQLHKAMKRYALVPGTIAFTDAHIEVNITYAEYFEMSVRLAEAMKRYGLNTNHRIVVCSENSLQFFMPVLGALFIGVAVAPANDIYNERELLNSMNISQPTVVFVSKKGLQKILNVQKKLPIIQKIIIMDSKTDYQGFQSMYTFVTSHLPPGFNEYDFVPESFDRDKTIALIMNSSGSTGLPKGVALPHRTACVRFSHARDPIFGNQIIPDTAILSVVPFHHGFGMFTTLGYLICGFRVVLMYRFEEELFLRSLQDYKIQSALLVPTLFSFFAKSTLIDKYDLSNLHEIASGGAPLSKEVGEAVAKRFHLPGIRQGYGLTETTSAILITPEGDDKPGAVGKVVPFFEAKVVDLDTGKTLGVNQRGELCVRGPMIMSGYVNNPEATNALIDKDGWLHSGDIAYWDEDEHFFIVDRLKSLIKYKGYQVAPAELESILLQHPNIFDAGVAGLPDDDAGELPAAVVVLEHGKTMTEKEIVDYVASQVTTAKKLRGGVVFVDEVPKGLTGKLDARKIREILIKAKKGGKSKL

[13] = biological target: T4, Oxysterols receptor LXR-beta; test: LXR agonists, Gal4 luciferase reporter, dose response, counter-screen for ssDAF-12 agonist project, cell-based, luminescence, HEK293, S. stercoralis campaign (AID 720737); assay type: functional; settings: read-out: IC50 (the source's name)

T1 sequence (P02675 whole entry, the tested form may be a part): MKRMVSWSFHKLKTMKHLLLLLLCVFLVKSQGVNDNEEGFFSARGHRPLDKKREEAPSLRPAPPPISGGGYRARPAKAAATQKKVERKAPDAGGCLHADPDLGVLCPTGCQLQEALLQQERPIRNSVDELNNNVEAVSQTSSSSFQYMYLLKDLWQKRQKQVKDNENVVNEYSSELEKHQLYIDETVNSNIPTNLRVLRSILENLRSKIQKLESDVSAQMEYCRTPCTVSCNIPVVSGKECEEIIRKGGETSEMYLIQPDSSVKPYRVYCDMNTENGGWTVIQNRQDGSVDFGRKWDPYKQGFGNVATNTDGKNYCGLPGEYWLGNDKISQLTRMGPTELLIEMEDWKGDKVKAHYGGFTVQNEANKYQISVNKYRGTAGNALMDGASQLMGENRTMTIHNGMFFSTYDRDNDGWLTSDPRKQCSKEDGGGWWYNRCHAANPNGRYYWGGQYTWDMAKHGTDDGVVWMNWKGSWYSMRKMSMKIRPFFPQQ

## O=C(COC(=O)c1cc(-c2cccc3ccccc23)nc2ccccc12)NC1CCS(=O)(=O)C1 (stereo not drawn)
Fibrinogen beta chain [1]
  IC50: > 83.3 µM (inactive)
Fibrinogen beta chain [2]
  IC50: > 83.3 µM (inactive)

## O=C(NCCCO)c1ccc2nc(-c3ccco3)c(-c3ccco3)nc2c1
Genome polyprotein
  IC50: 86.2 µM (active)
[3]
  IC50: 3.45 µM (not active)
[4]
  IC50: 28.4 µM (inactive)
[5]
  IC50: > 100 µM (active)
Caspase-6
  AC50: 13.1 µM (active)
[6]
  IC50: > 128 µM (inactive)

## Nc1cc(N2CCCCC2)nc(N)[n+]1[O-] [MINOXIDIL]
[7]
  IC50: > 33.3 µM (inactive)

## COc1ccc2c3c([nH]c2c1)[C@H](CO)N(C(C)=O)CC31CCN(C(C)=O)CC1
[8]
  AC50: 16.5 µM (active)

## O=C1C(c2ccnc3ccccc23)=C(O)c2ccccc21
[9]
  IC50: 3.11 µM (active)
cells
  EC50: > 67.5 µM (inactive)
Estrogen receptor
  EC50: 6.74 µM (active)
[10]
  IC50: > 67.5 µM (inactive)
HT-1080
  EC50: > 50 µM (not active)
[11]
  EC50: > 67.5 µM (inactive)
[12]
  EC50: 0.78 µM (active)
[13]
  EC50: > 67.5 µM (inactive)
